# Laboratory results published in article PMC9549030, “Structural basis for specific inhibition of the deubiquitinase UCHL1” (Nature Communications, 2022).
# Substitutions are numbered along the chain they refer to. “And” between values parts separate entries of the source, which are not always exact repeats. Equal values may be shown once.
# Columns and labels:
# UCHL3 A11I+L168F = target: T1, UCHL3 A11I+L168F (Homo sapiens, UniProt P15374, A11I/L168F); test: Ub-Rhodamine (Ubiquitin rhodamine cleavage) assay; format: biochemical
# T1 sequence (P15374 1-230 A11I/L168F): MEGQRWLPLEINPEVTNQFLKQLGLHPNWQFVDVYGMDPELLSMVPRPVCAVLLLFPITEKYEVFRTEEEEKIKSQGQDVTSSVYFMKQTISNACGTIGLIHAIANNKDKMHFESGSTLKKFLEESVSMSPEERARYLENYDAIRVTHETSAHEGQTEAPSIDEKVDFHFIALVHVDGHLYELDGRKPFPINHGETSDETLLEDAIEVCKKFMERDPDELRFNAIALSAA
# UCHL3 L168F = target: T2, UCHL3 L168F (Homo sapiens, UniProt P15374, L168F); test: Ub-Rhodamine (Ubiquitin rhodamine cleavage) assay; format: biochemical
# T2 sequence (P15374 1-230 L168F): T1 sequence (P15374 1-230 A11I/L168F) with I11A
# HEK293 cells = test: Cellular activity-based protein profiling (in-gel fluorescence); format: cell-based, human; conditions: 0.1 and 1 µM; 24 h
# Procedure: Cells (7 × 10^5) were seeded in six-well plates and cultivated for 48 h. Cells were then incubated in fresh DMEM supplemented with compound or DMSO for 24 h. The cells were washed with ice-cold PBS and harvested in 200 µL ABP lysis buffer as described above. […] Samples were separated by SDS-PAGE and analyzed for fluorescent protein-compound conjugates as described above.
# UCHL1 = target: T3, UCHL1 (Homo sapiens, UniProt P09936); test: Thermal shift assay; format: binding; conditions: UCHL1 1 µM, 1 h, replicates
# T3 sequence (P09936 1-223): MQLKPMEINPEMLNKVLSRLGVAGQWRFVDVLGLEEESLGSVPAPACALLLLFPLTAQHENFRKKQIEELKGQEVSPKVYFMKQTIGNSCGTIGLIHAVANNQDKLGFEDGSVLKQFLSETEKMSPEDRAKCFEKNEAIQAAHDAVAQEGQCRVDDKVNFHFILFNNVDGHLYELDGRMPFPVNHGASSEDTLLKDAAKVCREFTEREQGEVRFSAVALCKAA
# Procedure: Reactions were performed in white 96-well PCR plates (Bio-Rad). UCHL1 was diluted in thermal shift buffer (1x PBS, 5 mM DTT) to a 4x concentration of 4 µM. The protein was then mixed with 4x compound dissolved in thermal shift buffer in a 1:1 ratio. To each well was added 20 µL of DUB-Inhibitor solution, followed by 1 h incubation time. To each well was then added 20 µL 4x SYPRO Orange in thermal shift buffer. After sealing the plates with a transparent film, thermal denaturation (gradient: 20–90 °C; Increment: 0.3 °C, hold for 5 s before read) was performed and monitored by a Bio-Rad Connect cycler.
smiles,measurement,setting,value
C#CCCCNC(=O)c1ccc(-n2cnc(NC(=O)[C@H]3CCN(C#N)C3)c2)cc1 [GK13S],IC50,UCHL3 A11I+L168F,11 ± 2 µM
same,IC50,UCHL3 L168F,33 ± 11 µM
same,labeling of endogenous proteins in intact cells,HEK293 cells,strong signal for a band of ~30 kDa
same,melting temperature (Tm) of UCHL1,UCHL1; compound 1.25 µM,59.1 and 58.5
same,melting temperature (Tm) of UCHL1,UCHL1; compound 2.5 µM,58.8 and 59.1
same,melting temperature (Tm) of UCHL1,UCHL1; compound 5 µM,59.1
